The target of experiment [1] is EGFR L858R/T790M/C797S mutant enzyme (Homo sapiens (Human), UniProt P00533, C797S/L858R/T790M). Description: EGFR mutant enzyme inhibition, HTRF system (Cisbio). The note with it: ATP 1 mM, 37° C. for 2 hours. The format is biochemical. A digest of the protocol:
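Recombinant EGFR L858R/T790M/C797S preincubated with compound, then 1 mM ATP and 0.5 μM biotinylated peptide added; 2 h at 37 °C in Tris pH 7.5, MgCl2, DTT. HTRF detection (streptavidin-XL665, Eu anti-phosphotyrosine), 615/665 nm ratio; IC50 from 7 concentrations.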
In general terms: TR-FRET usually uses a lanthanide donor and a delayed reading to cut background.

In experiment [2] the test system is Ba/F3 EGFR L858R/T790M. Description: Ba/F3 cell viability, CellTiter-Glo. The format is cell-based. The settings on record: for cell viability: administered alone, FIGS. 1 to 4; for cell viability compared to EAI045: co-administered with Cetuximab, 30 nM or 100 nM, FIGS. 6 and 7. The protocol:
In order to confirm that the compound represented by formula 1 according to the present invention acted as an allosteric inhibitor against EGFR wild-type and mutants, the inhibitory effect on EGFR wild-type and mutants in Ba/F3 cell lines was evaluated. In addition, in order to evaluate the cellular activity when the compound according to the present invention was co-administered with an existing drug, the cellular activity according to the combined administration was evaluated using Cetuximab used alone or in combination with chemotherapy in metastatic colorectal cancer and metastatic squamous head and neck cancer.
Particularly, the activity of the compound of the present invention against the wild-type and mutant Ba/F3 EGFR cell lines was measured as follows using the CellTiter-Glo system of Promega. CellTiter-Glo assay is a method to confirm the cell viability by measuring ATP present in cells in cell culture state. Ba/F3 EGFR wild-type and Ba/F3 EGFR L858R, Ba/F3 EGFR L858R/T790M and Ba/F3 L858R/T790M/C797S mutant cell lines were purchased from Crown Bioscience and used. Ba/F3 EGFR wild-type and Ba/F3 EGFR L858R, Ba/F3 EGFR L858R/T790M and Ba/F3 L858R/T790M/C797S mutant cell lines were cultured in RPMI containing 10% FBS, 1% penicillin-streptomycin and 1 ug/ml of puromycine in a 37° C., 5% CO2 incubator.
Analysis of the cell survival inhibitory effect of the compound according to each EGFR mutant was performed according to the following analytical reaction recipe.
BaF3 cells were aliquoted into 2500 cells/50 ul per well of a 96 well cell culture plate and cultured for 24 hours, to which 50 ul of the compound represented by formula 1 was treated at the concentrations of 0, 0.03, 0.1, 0.3, and 1 μM. The plate treated with the compound was reacted in a 37° C. incubator for 72 hours, and then left at room temperature for 30 minutes according to the CellTiter-Glo assay instruction to maintain the plate temperature at room temperature. Thereafter, 100 μl of CellTiter-Glo reagent was treated to each well of the plate, followed by shaking incubation at room temperature for 10 minutes. Finally, the […] was quantitatively measured using a luminometer, and the ability of the compound to inhibit cell viability was confirmed. The values measured at concentrations of the compound were analyzed using Prism program (version 5.01, Graphpad Software, Inc.), and the IC50 value, an index of the inhibitory ability of the compound, was calculated.
Background: Cellular ATP, detected with luciferase, serves as a proxy for viable cell number.

Chain of EGFR L858R/T790M/C797S mutant enzyme (P00533 25-1210 T790M/C797S/L858R): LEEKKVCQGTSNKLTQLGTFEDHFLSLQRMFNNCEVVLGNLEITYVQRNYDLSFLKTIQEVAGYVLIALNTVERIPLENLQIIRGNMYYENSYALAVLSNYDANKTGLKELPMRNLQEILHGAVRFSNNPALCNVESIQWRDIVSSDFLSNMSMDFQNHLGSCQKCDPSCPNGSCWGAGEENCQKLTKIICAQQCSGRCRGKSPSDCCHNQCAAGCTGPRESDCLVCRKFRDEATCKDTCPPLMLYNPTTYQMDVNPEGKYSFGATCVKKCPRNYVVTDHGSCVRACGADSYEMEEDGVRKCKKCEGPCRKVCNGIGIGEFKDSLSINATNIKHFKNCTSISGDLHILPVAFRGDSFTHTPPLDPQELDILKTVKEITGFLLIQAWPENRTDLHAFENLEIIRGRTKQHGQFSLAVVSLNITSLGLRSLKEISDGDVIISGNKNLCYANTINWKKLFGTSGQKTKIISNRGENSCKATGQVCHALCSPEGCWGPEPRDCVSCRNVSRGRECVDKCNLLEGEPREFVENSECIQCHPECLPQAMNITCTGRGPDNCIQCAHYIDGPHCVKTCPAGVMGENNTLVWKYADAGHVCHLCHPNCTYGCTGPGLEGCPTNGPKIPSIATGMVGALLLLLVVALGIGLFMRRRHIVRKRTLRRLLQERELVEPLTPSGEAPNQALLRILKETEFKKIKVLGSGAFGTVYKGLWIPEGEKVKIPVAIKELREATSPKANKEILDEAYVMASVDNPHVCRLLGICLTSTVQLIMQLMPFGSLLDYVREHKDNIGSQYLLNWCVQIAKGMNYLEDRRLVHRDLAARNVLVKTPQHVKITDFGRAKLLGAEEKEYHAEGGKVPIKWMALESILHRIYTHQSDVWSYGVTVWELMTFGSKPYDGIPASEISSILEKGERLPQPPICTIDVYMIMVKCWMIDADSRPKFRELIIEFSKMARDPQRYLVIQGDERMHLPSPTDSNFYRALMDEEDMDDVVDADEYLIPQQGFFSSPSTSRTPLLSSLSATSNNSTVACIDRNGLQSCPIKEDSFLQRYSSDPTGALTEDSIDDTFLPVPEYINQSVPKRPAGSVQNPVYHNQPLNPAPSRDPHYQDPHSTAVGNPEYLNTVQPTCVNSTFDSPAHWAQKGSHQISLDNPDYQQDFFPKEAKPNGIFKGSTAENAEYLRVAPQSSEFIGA

In general, IC50 refers to the midpoint of a concentration-inhibition curve. Lower therefore signals higher potency. Take `O=C1c2cc(-c3ccc(N4CCNCC4)cc3)ccc2CN1C(c1nc2ccccc2[nH]1)c1ccccc1O` (centres unmarked) [Example 9, 2-((1H-benzo[d]imidazole-2-yl)(2-hydroxyphenyl)methyl)-6-(4-(piperazine-1-yl)phenyl)isoindolin-1-one]: in experiment [1], the IC50 was determined as 91 nM. For the same compound, in experiment [2], the cell viability entry is “increased cell viability” and the “cell viability compared to EAI045” value is given as “significantly reduced the cell viability”.

`Nc1ccc(-c2ccc3c(c2)C(=O)N(C(c2nc4ccccc4[nH]2)c2cc(F)ccc2O)C3)cc1` (centres unmarked) [Example 13, 2-((1H-benzo[d]imidazole-2-yl)(5-fluoro-2-hydroxyphenyl)methyl)-6-(4-aminophenyl)isoindolin-1-one] registered an IC50 in experiment [1] of 98 nM. Moreover, the cell viability entry in experiment [2] is recorded as “increased cell viability”.

In experiment [1], `O=C1c2cc(-c3ccc(N4CCNCC4)cc3)ccc2CN1[C@@H](c1cc2ccccc2[nH]1)c1cc(F)ccc1O` [Example 32, (R)-2-((5-fluoro-2-hydroxyphenyl)(1H-indole-2-yl)methyl)-6-(4-(piperazine-1-yl)phenyl)isoindolin-1-one] returned an IC50 of 8 nM. Moreover, in experiment [2], the cell viability entry is “increased cell viability” and the “cell viability compared to EAI045” value is listed as “significantly reduced the cell viability”.

As to `O=C1c2cc(-c3ccc(N4CCNCC4)cc3)ccc2CN1[C@@H](c1cc2ccccc2[nH]1)c1cc(Cl)ccc1O` [Example 33, (R)-2-((5-chloro-2-hydroxyphenyl)(1H-indole-2-yl)methyl)-6-(4-(piperazine-1-yl)phenyl)isoindolin-1-one], the IC50 in experiment [1] was 12 nM. In addition, in experiment [2], the cell viability result was “increased cell viability” and the “cell viability compared to EAI045” value is “significantly reduced the cell viability”.

The record behind these values is US11976059B2 (KOREA RESEARCH INSTITUTE OF CHEMICAL TECHNOLOGY, priority 2018, dated 2024).
